The target of test [1] is Serine/threonine-protein kinase MRCK alpha (Homo sapiens, UniProt Q5VT25).
Test [2] concerns the target T1, Mitogen-activated protein kinase kinase kinase kinase 2 (Homo sapiens, UniProt Q12851).
T1 sequence (Q12851 whole entry): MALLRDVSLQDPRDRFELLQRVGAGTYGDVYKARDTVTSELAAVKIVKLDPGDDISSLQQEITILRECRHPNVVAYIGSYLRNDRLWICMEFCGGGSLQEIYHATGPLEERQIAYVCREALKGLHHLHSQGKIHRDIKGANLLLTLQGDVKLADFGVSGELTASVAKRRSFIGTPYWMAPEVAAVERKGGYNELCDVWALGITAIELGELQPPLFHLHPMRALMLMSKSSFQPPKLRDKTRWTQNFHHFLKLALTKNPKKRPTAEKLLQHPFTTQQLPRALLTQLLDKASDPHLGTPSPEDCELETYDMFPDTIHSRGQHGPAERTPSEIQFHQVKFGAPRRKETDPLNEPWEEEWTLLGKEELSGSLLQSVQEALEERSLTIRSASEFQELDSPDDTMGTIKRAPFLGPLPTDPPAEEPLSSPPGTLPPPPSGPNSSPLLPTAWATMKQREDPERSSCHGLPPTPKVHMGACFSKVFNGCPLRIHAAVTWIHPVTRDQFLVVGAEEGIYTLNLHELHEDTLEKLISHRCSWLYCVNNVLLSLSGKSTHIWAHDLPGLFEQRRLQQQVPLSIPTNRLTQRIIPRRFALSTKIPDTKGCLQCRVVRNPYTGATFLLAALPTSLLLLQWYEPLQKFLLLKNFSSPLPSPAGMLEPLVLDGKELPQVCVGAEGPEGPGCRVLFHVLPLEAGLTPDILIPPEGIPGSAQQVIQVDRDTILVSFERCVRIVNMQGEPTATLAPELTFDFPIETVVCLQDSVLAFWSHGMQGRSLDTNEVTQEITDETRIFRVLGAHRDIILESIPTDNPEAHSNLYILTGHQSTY

The target of test [3] is T2, MAP/microtubule affinity-regulating kinase 4 (Homo sapiens, UniProt Q96L34).
T2 sequence (Q96L34 whole entry): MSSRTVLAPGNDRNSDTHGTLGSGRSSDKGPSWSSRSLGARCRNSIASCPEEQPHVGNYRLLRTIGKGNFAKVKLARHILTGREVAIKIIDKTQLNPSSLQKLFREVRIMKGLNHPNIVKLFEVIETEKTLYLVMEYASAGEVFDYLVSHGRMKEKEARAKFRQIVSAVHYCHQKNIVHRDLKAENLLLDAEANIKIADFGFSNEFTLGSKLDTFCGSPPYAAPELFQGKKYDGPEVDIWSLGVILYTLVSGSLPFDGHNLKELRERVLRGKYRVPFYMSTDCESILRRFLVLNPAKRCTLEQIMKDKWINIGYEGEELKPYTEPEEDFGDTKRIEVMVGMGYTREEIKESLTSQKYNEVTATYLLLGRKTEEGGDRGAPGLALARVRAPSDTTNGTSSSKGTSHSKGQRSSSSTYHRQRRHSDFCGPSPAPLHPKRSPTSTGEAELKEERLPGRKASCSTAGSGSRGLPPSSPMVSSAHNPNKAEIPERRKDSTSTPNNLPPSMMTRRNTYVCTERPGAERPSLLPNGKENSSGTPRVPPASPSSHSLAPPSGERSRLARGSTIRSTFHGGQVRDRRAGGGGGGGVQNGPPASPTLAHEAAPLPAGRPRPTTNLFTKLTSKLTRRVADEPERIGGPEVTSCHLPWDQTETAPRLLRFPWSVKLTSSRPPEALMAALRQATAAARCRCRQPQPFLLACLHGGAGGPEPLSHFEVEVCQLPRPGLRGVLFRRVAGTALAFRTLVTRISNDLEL

The target of test [4] is Ribosomal protein S6 kinase alpha-3 (Homo sapiens, UniProt P51812).
Chain of Ribosomal protein S6 kinase alpha-3 (P51812 whole entry): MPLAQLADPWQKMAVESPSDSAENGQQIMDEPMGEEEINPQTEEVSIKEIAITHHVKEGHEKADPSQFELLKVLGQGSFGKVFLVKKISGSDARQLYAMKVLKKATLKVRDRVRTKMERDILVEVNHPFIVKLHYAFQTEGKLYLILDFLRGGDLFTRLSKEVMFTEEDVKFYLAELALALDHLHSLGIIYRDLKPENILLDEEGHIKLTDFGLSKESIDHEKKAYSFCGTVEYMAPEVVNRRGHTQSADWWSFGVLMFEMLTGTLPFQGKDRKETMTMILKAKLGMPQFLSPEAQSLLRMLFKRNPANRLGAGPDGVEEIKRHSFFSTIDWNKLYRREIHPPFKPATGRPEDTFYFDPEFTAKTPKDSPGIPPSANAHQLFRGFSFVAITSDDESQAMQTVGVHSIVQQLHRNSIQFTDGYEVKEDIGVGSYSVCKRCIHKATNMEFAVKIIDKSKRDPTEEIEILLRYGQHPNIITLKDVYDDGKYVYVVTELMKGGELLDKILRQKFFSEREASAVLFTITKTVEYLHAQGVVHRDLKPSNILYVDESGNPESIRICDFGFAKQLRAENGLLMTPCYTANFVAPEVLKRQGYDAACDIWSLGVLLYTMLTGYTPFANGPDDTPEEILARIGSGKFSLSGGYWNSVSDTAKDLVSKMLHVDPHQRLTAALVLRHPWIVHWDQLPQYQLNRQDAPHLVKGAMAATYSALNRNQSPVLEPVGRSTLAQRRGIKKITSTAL
Test [5] has as its target Serine/threonine-protein kinase SIK2 (Homo sapiens, UniProt Q9H0K1).
The target in test [6] is Serine/threonine-protein kinase 10 (Homo sapiens, UniProt O94804).
Chain of Serine/threonine-protein kinase 10 (O94804 whole entry): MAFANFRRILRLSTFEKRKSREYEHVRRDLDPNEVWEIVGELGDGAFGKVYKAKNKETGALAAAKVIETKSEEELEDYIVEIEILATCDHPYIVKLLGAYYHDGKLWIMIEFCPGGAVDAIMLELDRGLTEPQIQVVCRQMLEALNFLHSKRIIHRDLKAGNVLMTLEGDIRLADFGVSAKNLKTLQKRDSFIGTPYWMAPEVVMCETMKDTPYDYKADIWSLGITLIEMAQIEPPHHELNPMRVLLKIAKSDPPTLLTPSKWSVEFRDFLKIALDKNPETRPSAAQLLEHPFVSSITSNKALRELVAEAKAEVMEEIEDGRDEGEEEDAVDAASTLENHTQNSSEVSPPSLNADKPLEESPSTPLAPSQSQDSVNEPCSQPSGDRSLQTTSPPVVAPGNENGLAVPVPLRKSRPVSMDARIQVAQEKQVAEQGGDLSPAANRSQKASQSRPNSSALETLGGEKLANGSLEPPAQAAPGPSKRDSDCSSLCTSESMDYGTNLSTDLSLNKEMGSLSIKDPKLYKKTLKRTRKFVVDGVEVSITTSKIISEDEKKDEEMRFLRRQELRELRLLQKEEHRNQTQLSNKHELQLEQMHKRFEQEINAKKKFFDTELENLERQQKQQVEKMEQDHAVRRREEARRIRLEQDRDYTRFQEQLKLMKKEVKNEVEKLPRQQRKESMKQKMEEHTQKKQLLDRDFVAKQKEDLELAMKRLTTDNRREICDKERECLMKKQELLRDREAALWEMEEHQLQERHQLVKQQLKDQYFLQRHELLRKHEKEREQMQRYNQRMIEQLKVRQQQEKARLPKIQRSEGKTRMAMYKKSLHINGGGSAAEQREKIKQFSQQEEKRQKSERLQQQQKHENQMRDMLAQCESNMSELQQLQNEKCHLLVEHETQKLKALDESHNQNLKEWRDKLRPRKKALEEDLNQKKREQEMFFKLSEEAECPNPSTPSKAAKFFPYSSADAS
The target of test [7] is T3, Uncharacterized protein FLJ45252 (Homo sapiens, UniProt Q6ZSR9).
T3 sequence (Q6ZSR9 whole entry): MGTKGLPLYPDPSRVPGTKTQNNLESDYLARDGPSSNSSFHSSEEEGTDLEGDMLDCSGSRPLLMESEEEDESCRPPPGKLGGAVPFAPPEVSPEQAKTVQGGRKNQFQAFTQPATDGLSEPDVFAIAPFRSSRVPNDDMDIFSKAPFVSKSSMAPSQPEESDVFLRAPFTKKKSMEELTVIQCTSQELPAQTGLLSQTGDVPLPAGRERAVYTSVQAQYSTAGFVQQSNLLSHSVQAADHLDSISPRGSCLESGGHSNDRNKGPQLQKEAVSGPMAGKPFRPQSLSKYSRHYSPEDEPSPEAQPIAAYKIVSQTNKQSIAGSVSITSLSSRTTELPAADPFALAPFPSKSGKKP
Conditions: read-out: Kd apparent; k-562, colo 205, sk-n-be(2) and mv-4-11.

Active and inactive are the calls of the source. For most assays here, no stated cut-off is given here; in the data, actives have a measured Kd and inactives only a lower limit.

Chain of Serine/threonine-protein kinase MRCK alpha (Q5VT25 whole entry): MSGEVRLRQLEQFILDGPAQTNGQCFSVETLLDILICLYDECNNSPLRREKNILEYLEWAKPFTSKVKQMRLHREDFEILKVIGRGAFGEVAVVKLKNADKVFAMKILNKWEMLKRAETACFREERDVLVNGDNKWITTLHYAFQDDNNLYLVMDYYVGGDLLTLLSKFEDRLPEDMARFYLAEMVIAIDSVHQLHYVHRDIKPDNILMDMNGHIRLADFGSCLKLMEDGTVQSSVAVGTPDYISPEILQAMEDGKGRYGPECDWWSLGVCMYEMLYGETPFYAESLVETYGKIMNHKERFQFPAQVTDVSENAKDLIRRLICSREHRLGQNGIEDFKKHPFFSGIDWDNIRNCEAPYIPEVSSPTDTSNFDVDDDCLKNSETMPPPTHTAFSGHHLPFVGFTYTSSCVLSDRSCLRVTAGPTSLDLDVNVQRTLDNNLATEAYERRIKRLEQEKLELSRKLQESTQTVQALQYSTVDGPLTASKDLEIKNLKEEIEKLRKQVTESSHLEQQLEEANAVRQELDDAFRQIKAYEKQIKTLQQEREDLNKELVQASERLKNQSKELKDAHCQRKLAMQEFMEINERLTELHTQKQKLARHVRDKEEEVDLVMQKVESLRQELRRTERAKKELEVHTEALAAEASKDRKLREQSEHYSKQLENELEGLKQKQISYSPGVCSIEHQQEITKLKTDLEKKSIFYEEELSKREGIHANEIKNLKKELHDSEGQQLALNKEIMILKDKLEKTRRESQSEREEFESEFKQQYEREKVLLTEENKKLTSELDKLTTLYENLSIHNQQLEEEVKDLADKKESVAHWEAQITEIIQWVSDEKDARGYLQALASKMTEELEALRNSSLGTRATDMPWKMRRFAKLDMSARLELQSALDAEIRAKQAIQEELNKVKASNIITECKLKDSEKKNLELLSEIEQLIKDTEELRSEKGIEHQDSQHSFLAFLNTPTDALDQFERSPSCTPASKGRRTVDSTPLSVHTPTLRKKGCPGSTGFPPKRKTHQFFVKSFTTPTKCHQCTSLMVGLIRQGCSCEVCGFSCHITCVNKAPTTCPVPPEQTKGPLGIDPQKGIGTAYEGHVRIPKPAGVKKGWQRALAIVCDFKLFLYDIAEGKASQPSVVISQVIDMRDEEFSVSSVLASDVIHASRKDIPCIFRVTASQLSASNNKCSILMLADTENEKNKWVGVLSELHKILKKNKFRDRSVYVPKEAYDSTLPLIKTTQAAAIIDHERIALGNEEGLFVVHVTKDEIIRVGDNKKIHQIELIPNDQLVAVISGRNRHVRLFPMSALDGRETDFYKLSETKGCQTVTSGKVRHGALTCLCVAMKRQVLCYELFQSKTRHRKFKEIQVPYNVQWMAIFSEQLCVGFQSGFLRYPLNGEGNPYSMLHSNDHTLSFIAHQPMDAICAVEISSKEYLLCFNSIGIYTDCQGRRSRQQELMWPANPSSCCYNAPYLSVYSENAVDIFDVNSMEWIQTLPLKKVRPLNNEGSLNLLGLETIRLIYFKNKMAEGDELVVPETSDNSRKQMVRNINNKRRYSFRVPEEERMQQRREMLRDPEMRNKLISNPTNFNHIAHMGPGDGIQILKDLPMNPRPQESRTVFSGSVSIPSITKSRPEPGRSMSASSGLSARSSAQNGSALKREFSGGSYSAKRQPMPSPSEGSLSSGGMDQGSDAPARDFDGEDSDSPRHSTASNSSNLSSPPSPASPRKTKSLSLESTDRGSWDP
Chain of Serine/threonine-protein kinase SIK2 (Q9H0K1 whole entry): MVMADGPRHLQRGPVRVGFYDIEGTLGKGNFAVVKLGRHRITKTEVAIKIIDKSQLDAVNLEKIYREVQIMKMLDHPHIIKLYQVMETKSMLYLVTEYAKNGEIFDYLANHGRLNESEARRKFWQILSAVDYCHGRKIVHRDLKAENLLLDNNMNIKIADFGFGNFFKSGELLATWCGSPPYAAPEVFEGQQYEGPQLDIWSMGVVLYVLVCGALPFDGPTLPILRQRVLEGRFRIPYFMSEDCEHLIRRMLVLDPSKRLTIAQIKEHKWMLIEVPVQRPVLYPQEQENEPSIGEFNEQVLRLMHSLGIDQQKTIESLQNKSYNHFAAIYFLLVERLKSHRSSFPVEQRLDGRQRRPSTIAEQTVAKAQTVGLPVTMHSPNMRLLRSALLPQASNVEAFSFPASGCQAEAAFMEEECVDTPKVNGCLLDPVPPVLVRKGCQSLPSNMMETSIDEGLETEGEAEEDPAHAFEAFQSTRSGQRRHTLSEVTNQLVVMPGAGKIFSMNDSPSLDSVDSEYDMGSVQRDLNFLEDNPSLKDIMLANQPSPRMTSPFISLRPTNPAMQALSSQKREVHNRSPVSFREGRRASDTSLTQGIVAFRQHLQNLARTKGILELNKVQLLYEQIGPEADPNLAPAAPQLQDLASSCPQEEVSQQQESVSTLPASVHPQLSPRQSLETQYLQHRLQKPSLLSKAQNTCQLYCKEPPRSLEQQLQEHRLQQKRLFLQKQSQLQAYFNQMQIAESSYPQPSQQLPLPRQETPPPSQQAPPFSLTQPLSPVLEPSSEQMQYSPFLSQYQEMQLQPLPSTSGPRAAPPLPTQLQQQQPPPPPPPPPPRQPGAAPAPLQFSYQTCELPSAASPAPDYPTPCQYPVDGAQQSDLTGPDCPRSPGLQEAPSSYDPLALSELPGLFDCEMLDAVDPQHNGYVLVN

For the compound `COc1cc(CCc2cc(NC(=O)c3ccc(N4C[C@@H](C)N[C@@H](C)C4)cc3)n[nH]2)cc(OC)c1` [AZD-4547], the Kd in test [1] was > 30 µM (inactive); in test [2], 0.11 µM (active); in test [3] it was > 30 µM (inactive); in test [4] it was > 30 µM (inactive); in test [5], > 30 µM (inactive); in test [6], > 30 µM (inactive). Moreover, in test [7], the Kd was > 30 µM (inactive).

For the compound `C=CC(=O)N1CCC(Oc2cc3c(Nc4ccc(Cl)c(Cl)c4F)ncnc3cc2OC)CC1` [POZIOTINIB], the Kd in test [1], in test [2], in test [3], in test [4], in test [5] and in test [6] was > 30 µM (inactive) throughout. For the same compound, the Kd in test [7] was > 30 µM (inactive).

As to `Cc1cc2c(F)c(Oc3ncnn4cc(OC[C@@H](C)OC(=O)[C@H](C)N)c(C)c34)ccc2[nH]1` [BRIVANIB ALANINATE], the Kd in test [1] is > 30 µM (inactive); in test [2], > 30 µM (inactive); in test [3], > 30 µM (inactive); in test [4] it was > 30 µM (inactive); in test [5] it was > 30 µM (inactive); in test [6] it was 8.44 µM (active). Besides, the Kd in test [7] was > 30 µM (inactive).

With `C[C@@H]1CN(Cc2ccc(F)cc2)[C@@H](C)CN1C(=O)c1cc2c(C(=O)C(=O)N(C)C)cn(C)c2cc1Cl` [TALMAPIMOD], the Kd in test [1], in test [2], in test [3], in test [4], in test [5] and in test [6] was > 30 µM (inactive) throughout. The Kd in test [7] is > 30 µM (inactive).

In the case of `CN1CCC(COc2cnc(-c3cccc(Cn4nc(-c5cccc(C#N)c5)ccc4=O)c3)nc2)CC1` [TEPOTINIB], the Kd in test [1], in test [2], in test [3], in test [4], in test [5] and in test [6] was > 30 µM (inactive) each time. The Kd in test [7] was > 30 µM (inactive).

`COc1cc2nccc(Oc3ccc(NC(=O)NC4CC4)c(Cl)c3)c2cc1C(N)=O` [LENVATINIB]: the Kd was > 30 µM (inactive) in test [1]; 0.578 µM (active) in test [2]; > 30 µM (inactive) in test [3]; > 30 µM (inactive) in test [4]; > 30 µM (inactive) in test [5]; 0.793 µM (active) in test [6]. In addition, the Kd in test [7] was > 30 µM (inactive).

Turning to `CNC(=O)c1ccc(C)c(-n2c(C)cc(OCc3ccc(F)cc3F)c(Br)c2=O)c1` [PH-797804], the Kd in test [1], in test [2], in test [3], in test [4], in test [5] and in test [6] was > 30 µM (inactive) each time. The Kd in test [7] was > 30 µM (inactive).

For `COc1cc2nccc(Oc3ccc(NC(=O)Nc4cc(C)on4)c(Cl)c3)c2cc1OC` [TIVOZANIB], the Kd in test [1] is > 30 µM (inactive); in test [2] it was 2.38 µM (active); in test [3] it was > 30 µM (inactive); in test [4] it was > 30 µM (inactive); in test [5], > 30 µM (inactive); in test [6], 4.62 µM (active). In test [7], the Kd was > 30 µM (inactive).

With `COc1cc(N2CCC(N3CCN(C)CC3)CC2)ccc1Nc1ncnc(Nc2ccccc2S(=O)(=O)C(C)C)n1` [ASP-3026], the Kd in test [1] was > 30 µM (inactive); in test [2], > 30 µM (inactive); in test [3] it was > 30 µM (inactive); in test [4], > 30 µM (inactive); in test [5], 0.123 µM (active); in test [6], 23.7 µM (active). The Kd in test [7] was 0.822 µM (active).

As for `Cc1cc([C@@H](C)Nc2ccccc2C(=O)O)c2nc(N3CCOCC3)cc(=O)n2c1` [AZD-6482], the Kd in test [1], in test [2], in test [3], in test [4], in test [5] and in test [6] was > 30 µM (inactive) in each case. Also, in test [7], the Kd was > 30 µM (inactive).

In the case of `O=c1sn(-c2cccc3ccccc23)c(=O)n1Cc1ccccc1` [TIDEGLUSIB], the Kd in test [1], in test [2], in test [3], in test [4], in test [5] and in test [6] was > 30 µM (inactive) throughout. Moreover, the Kd in test [7] was > 30 µM (inactive).

As to `Cc1ccc(-n2nc(C(C)(C)C)cc2NC(=O)NCc2cc(F)ccc2Oc2ccc3c(cnn3CCO)c2)cc1` [PEXMETINIB], the Kd in test [1], in test [2], in test [3], in test [4], in test [5] and in test [6] was > 30 µM (inactive) in each case. In addition, the Kd in test [7] is > 30 µM (inactive).

Take `CCN1CCN(Cc2ccc(-c3cc4c(N[C@H](C)c5ccccc5)ncnc4[nH]3)cc2)CC1` [AEE-788]: the Kd was > 30 µM (inactive) in test [1]; 3.53 µM (active) in test [2]; > 30 µM (inactive) in test [3]; > 30 µM (inactive) in test [4]; 41.8 µM (active) in test [5]; 42.6 µM (active) in test [6]. In addition, in test [7], the Kd was > 30 µM (inactive).

With `Cc1ccc(NC(=O)c2ccc(CN3CC[C@H](N(C)C)C3)c(C(F)(F)F)c2)cc1Nc1nccc(-c2cncnc2)n1` [BAFETINIB], the Kd in test [1], in test [2], in test [3], in test [4], in test [5] and in test [6] was > 30 µM (inactive) each time. Moreover, in test [7], the Kd was > 30 µM (inactive).

In the case of `CN(C)C(=O)c1cc2cnc(Nc3ccc(N4CCNCC4)cn3)nc2n1C1CCCC1` [RIBOCICLIB], the Kd in test [1] was > 30 µM (inactive); in test [2], > 30 µM (inactive); in test [3], > 30 µM (inactive); in test [4], > 30 µM (inactive); in test [5] it was 2.49 µM (active); in test [6], > 30 µM (inactive). Also, in test [7], the Kd was 9.31 µM (active).

Regarding `COCCNCc1ccc(-c2cc3nccc(Oc4ccc(NC(=S)NC(=O)Cc5ccc(F)cc5)cc4F)c3s2)nc1` [GLESATINIB], the Kd in test [1], in test [2], in test [3], in test [4], in test [5] and in test [6] was > 30 µM (inactive) throughout. Also, the Kd in test [7] is > 30 µM (inactive).

The values above are taken from ChEMBL document CHEMBL3991601, “The target landscape of clinical kinase drugs” (Science, 2017).
